Experimental data from ChEMBL document CHEMBL1201862, “PubChem BioAssay data set” (2004).
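Results reflect a 48-hour exposure of cells in 96-well plates to compound at five concentrations. GI50 is the concentration that inhibits growth by half.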 Activity calls are given as the source filed them. Cut-off read from the data, not from the text of the source: active = GI50 up to about 1.1 µM and inactive = higher.

What was measured:
Test in all cases: NCI tumour cell line growth inhibition, 48 h
[1] = test system: A498
[2] = test system: CCRF-CEM
[3] = test system: HCT-116
[4] = test system: HOP-62
[5] = test system: HOP-92
[6] = test system: M14
[7] = test system: M19-MEL
[8] = test system: MOLT-4
[9] = test system: Malme-3M
[10] = test system: NCI-H460
[11] = test system: SK-MEL-28
[12] = test system: SK-MEL-2
[13] = test system: SNB-19
[14] = test system: SR
[15] = test system: TK-10
[16] = test system: UACC-257
[17] = test system: UACC-62
[18] = test system: NCI-H226

Measured: GI50

CCCCCCCCCCCC(=O)OCC1OC(n2cc(F)c(=O)[nH]c2=O)C(N)C(OC(=O)CCCCCCCCCCC)C1O (configuration not stated)
inactive: [1] > 100 µM | [2] 37.2 µM | [3] 88.1 µM | [4] > 100 µM | [5] 36.2 µM | [6] 64.4 µM | [7] > 100 µM | [8] 27 µM | [9] > 100 µM | [10] > 100 µM | [11] > 100 µM | [12] > 100 µM | [13] > 100 µM | [14] 34.4 µM | [15] > 100 µM | [16] > 100 µM | [17] > 100 µM

CCOC(=O)N1CCC(=O)C(CNC23CC4CC(CC(C4)C2)C3)C1 (configuration not stated)
inactive: [1] > 100 µM | [2] 16.9 µM | [4] > 100 µM | [5] 20.7 µM | [7] 20.4 µM | [8] 13.9 µM | [9] 17.7 µM | [18] > 100 µM | [10] > 100 µM | [11] 18.2 µM | [12] > 100 µM | [13] > 100 µM | [14] 21.7 µM | [15] > 100 µM | [16] 23.9 µM | [17] > 100 µM

COC(=O)C(C(=O)c1ccccc1)C(C(=O)C(=O)Nc1ccc(OC)cc1OC)C(=O)C(=O)c1ccc(C)cc1 (configuration not stated)
inactive: [1] > 100 µM | [2] > 100 µM | [3] > 100 µM | [4] > 100 µM | [6] > 100 µM | [7] > 100 µM | [8] > 100 µM | [9] > 100 µM | [18] > 100 µM | [10] > 100 µM | [11] > 100 µM | [12] > 100 µM | [13] > 100 µM | [14] > 100 µM | [15] > 100 µM | [16] > 100 µM | [17] > 100 µM

O=[N+]([O-])c1ccc(N2C[N+](c3ccccc3)=NC(c3ccccc3)=N2)cc1
inactive: [2] 45.1 µM | [3] 23.3 µM | [4] 17.8 µM | [5] 35.7 µM | [6] 58.1 µM | [7] 75.3 µM | [8] 43.5 µM | [9] 91.2 µM | [18] > 100 µM | [10] 39.4 µM | [11] > 100 µM | [12] 20.5 µM | [13] 38.6 µM | [14] 37.8 µM | [15] 40.7 µM | [16] 38.5 µM | [17] 26.2 µM
